Earlier results, collected in patent publication US20160317662A1, “STABLE ORAL PHARMACEUTICAL COMPOSITION” (H[…].A., priority 2013, published 2016).

Details: aqueous solutions; state of the art

COc1ccc2c3c1O[C@H]1[C@@H](O)C=C[C@H]4C(C2)N(C)CC[C@@]341 [codeine, codein phosphate hemihydrate]
pH around which solutions are relatively stable: ~3.5
